According to PubChem BioAssay (NCI):
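Here, GI50 denotes the concentration required for 50% inhibition of growth. TGI is the concentration that stops growth completely.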

What was measured:
Assay in all cases: growth of human tumour cells (NCI), 384-well format
NCI-H226 lung = tested on: NCI-H226 lung
KM12 colon = tested on: KM12 colon
DU-145 prostate = tested on: DU-145 prostate
LOX IMVI melanoma = tested on: LOX IMVI melanoma
HT29 colon = tested on: HT29 colon
HOP-62 NSCLC = tested on: HOP-62 NSCLC
SK-MEL-5 melanoma = tested on: SK-MEL-5 melanoma
MCF7 breast = tested on: MCF7 breast
786-0 renal = tested on: 786-0 renal
HCT-15 colon = tested on: HCT-15 colon
UACC-62 melanoma = tested on: UACC-62 melanoma
OVCAR-3 ovarian = tested on: OVCAR-3 ovarian
MALME-3M melanoma = tested on: MALME-3M melanoma
MDA-MB-468 breast = tested on: MDA-MB-468 breast
SNB-75 CNS = tested on: SNB-75 CNS
NCI-H460 NSCLC = tested on: NCI-H460 NSCLC
OVCAR-8 ovarian = tested on: OVCAR-8 ovarian
SW-620 colon = tested on: SW-620 colon
NCI-H23 lung = tested on: NCI-H23 lung
CAKI-1 renal = tested on: CAKI-1 renal
EKVX NSCLC = tested on: EKVX NSCLC
SR leukemia = tested on: SR leukemia
UACC-257 melanoma = tested on: UACC-257 melanoma
SK-OV-3 ovarian = tested on: SK-OV-3 ovarian
RXF 393 renal = tested on: RXF 393 renal
NCI-H522 lung = tested on: NCI-H522 lung
IGROV1 ovarian = tested on: IGROV1 ovarian
T-47D breast = tested on: T-47D breast
K-562 leukemia = tested on: K-562 leukemia

`C=CCn1c(=O)c2cnc(Nc3ccc(N4CCN(C)CC4)cc3)nc2n1-c1cccc(C(C)(C)O)n1` gave a GI50 (NCI-H226 lung) of 1410 nM, a TGI (NCI-H226 lung) of 9220 nM and a GI50 (KM12 colon) of 218 nM. For the same compound, the TGI (KM12 colon) was 649 nM, the GI50 (DU-145 prostate) was 262 nM and the TGI (DU-145 prostate) was 1810 nM. For the same compound, the GI50 (LOX IMVI melanoma) was 626 nM, the TGI (LOX IMVI melanoma) was 2710 nM and the GI50 (HT29 colon) was 319 nM. The TGI (HT29 colon) was 15200 nM, the GI50 (HOP-62 NSCLC) was 406 nM and the TGI (HOP-62 NSCLC) was 2130 nM. For the same compound, the GI50 (SK-MEL-5 melanoma) was 187 nM, the TGI (SK-MEL-5 melanoma) was 460 nM and the GI50 (MCF7 breast) was 216 nM. The TGI (MCF7 breast) was 11500 nM, the GI50 ([…]-0 renal) was 183 nM and the TGI (786-0 renal) was 414 nM. For the same compound, the GI50 (HCT-15 colon) was 326 nM, the TGI (HCT-15 colon) was 1210 nM and the GI50 (UACC-62 melanoma) was 354 nM. The TGI (UACC-62 melanoma) was 12800 nM, the GI50 (OVCAR-3 ovarian) was 130 nM and the TGI (OVCAR-3 ovarian) was 328 nM. For the same compound, the GI50 (MALME-3M melanoma) was 52.9 nM, the TGI (MALME-3M melanoma) was 342 nM and the GI50 (MDA-MB-468 breast) was 220 nM. It also gave a TGI (MDA-MB-468 breast) of 492 nM, a GI50 (SNB-75 CNS) of 1210 nM and a TGI (SNB-75 CNS) of 4350 nM. For the same compound, the GI50 (NCI-H460 NSCLC) was 574 nM, the TGI (NCI-H460 NSCLC) was 3420 nM and the GI50 (OVCAR-8 ovarian) was 219 nM. It also gave a TGI (OVCAR-8 ovarian) of 566 nM, a GI50 (SW-620 colon) of 352 nM and a TGI (SW-620 colon) of 1930 nM. It also gave a GI50 (NCI-H23 lung) of 94.5 nM, a TGI (NCI-H23 lung) of 254 nM and a GI50 (CAKI-1 renal) of 72.3 nM. For the same compound, the TGI (CAKI-1 renal) was 11200 nM, the GI50 (EKVX NSCLC) was 560 nM and the TGI (EKVX NSCLC) was 4800 nM. The GI50 (SR leukemia) was 58.4 nM, the TGI (SR leukemia) was 184 nM and the GI50 (UACC-257 melanoma) was 10000 nM. It also gave a TGI (UACC-257 melanoma) of 21900 nM, a GI50 (SK-OV-3 ovarian) of 76.6 nM and a TGI (SK-OV-3 ovarian) of 1460 nM. It also gave a GI50 (RXF 393 renal) of 48.7 nM, a TGI (RXF 393 renal) of 196 nM and a GI50 (NCI-H522 lung) of 135 nM. For the same compound, the TGI (NCI-H522 lung) was 286 nM, the GI50 (IGROV1 ovarian) was 173 nM and the TGI (IGROV1 ovarian) was 1090 nM. It also gave a GI50 (T-47D breast) of 5880 nM, a TGI (T-47D breast) of 28900 nM and a GI50 (K-562 leukemia) of 175 nM.
